{"source": "patent US7442513B2", "about": "“Method of screening for agents that modulate a homer signaling pathway” (The Johns Hopkins University, priority 2003, dated 2008)", "key": {"TrpC1 binding to Homer": {"system": "TrpC1 binding to Homer", "assay": "TrpC1 binding to GSTHomer after treating lysates of TrpC1-expressing HEK293 cells", "settings": "for effect on TrpC1 binding to Homer: lysates treated with indicated concentrations", "description": "TrpC1 was transiently expressed in HEK293 cells and lysates were treated with the indicated concentrations of FK506, GPI1046, cyclosporin A or aniracetam (negative control) and assayed for TrpC1 binding to GSTHomer. TrpC1 migrates as both a monomer and dimer. Note that FK506, GPI1046 and cyclosporin A (but not aniracetam) treatment results in increased TrpC1 binding to Homer."}, "[1]": {"target": "T1, TrpC1 binding to GST-FKBP52 (Homo sapiens, UniProt Q02790)", "T1 construct": "expressed in transfected cells; host or cells: HEK293 cell lysate (TrpC1)", "T1 sequence (Q02790 1-459)": "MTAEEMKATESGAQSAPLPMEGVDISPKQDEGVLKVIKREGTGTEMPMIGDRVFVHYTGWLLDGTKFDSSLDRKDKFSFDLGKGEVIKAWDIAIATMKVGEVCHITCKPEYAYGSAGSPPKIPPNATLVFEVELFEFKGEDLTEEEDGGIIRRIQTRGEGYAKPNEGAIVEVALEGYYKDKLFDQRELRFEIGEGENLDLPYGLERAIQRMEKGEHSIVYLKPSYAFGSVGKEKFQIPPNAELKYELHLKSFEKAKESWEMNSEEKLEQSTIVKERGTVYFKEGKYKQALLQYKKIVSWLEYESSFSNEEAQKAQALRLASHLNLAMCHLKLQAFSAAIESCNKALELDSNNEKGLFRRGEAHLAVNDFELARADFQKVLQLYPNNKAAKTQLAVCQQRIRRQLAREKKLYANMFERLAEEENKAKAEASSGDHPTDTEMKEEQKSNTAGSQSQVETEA", "assay": "TrpC1 binding to GST-FKBP52 after pretreating cell lysates with PPIase inhibitors", "source_text": "To further test this hypothesis, the binding of TrpC1 to GST-FKBP12 or GST-FKBP52 was examined. Also, the effect of pretreating cell lysates with FK506, GPI-1046, cyclosporin A or the control agent aniracetam (structurally similar to GPI-1946) was examined. The notion being that dissociation of endogenous FKBP would increase the availability of TrpC1 to bind GST-FKBP in vitro. The FK506 might also be expected to bind to GST-FKBP but because this protein is highly concentrated on the bead and is in vast excess to cellular FKBP, the net consequence of drug treatment would be increased binding of TrpC1 to GST-FKBP. In these assays, TrpC1 bound to FKBP52 (FIG. 15), but not to FKBP12. Binding of TrpC1 to GST-FKBP52 was increased by treatment with both FK506 and GPI1046. The effect of these agents was particularly robust for the dimeric TrpC1 species and was detected with 100 nM FK506 or GPI1046. These studies confirmed that TrpC1 is bound by Homer and FKBP52, and that treatment of cell lysates or cells with drugs that inhibit rotamase activity and dissociate rotamases from their target proteins, result in enhanced binding of TrpC1 to both Homer (FIG. 14) and FKBP52 (FIG. 15)."}, "mGluR5 binding to Homer": {"system": "mGluR5 binding to Homer", "assay": "mGluR5 binding to GST-Homer after treating mGluR5-expressing HEK293 cells with PPIase inhibitors (pull-down, western blot)", "assay_type": "cell-based", "settings": "for effect on mGluR5 binding to GST-Homer: HEK293 cells expressing mGluR5, 1 micromolar in medium, differing intervals", "description": "HEK293 cells were transfected with pRK5-mGluR5. 1 micromolar FK506 was added to the medium for differing intervals prior to harvesting and preparation of lysates in the indicated buffer, which include inhibitors of phosphatases and proteases. Lysates were mixed with glutathione agarose beads loaded with GST-Homer 3 EVH1 domain for 1 hr at 4 C. mGluR5 that bound to Homer was then analyzed by western blot. Lysates were also assayed to confirm expression of mGluR5 (lower panel). Note the increase in mGluR5 that binds to Homer from lysates of cells treated for 3 hrs or longer with FK506.\nIf PPIases regulate the conformational state of the mGluR5, it was anticipated that PPIase inhibitors would alter the ability of the mGluR5 to bind to Homer. To examine this hypothesis, Homer was expressed as a bacterial fusion protein with glutathione S-transferase (GST) and loaded the protein on a glutathione agarose bead. These binding assays are identical to those used previously to document the ligand consensus sequence in mGluR5 (Tu et al., 1998), and for analysis of the binding surfaces of Homer (Beneken et al., 2000).\nCells were treated for different times with PPIase inhibitors and then harvested in buffer containing protease and phosphatase inhibitors and 1% Triton detergent. Soluble lysates were then mixed with beads loaded with GST-Homer incubated for 1 hr at 4° C., washed several times and proteins eluted with SDS loading buffer. […] Increased binding was detected by 3 hrs and remained elevated for 24 hrs."}, "[2]": {"system": "TrpC1 binding to Homer1EVH1", "assay": "TrpC1 binding to GST-Homer1 EVH1 after treating TrpC1-expressing HEK293 cells with FK506", "assay_type": "cell-based", "settings": "150 nM", "description": "HEK293 cells that transiently express TrpC1 were treated with FK506 for indicted time prior to preparation of lysates and binding to GST-Homer. Note that FK506 treatment increases TrpC1 binding to Homer.\nAn observation from the Homer-TrpC1 binding data remained enigmatic. […] Additionally, certain point mutants of the C-terminal Homer ligand increase binding to Homer. […] The possibility that an FKBP homologue might bind mammalian TrpC1 and impact the binding of Homer was explored. As a first test of this hypothesis, the consequence of treating cells expressing TrpC1 with FK506, and then testing TrpC1 binding to GST-Homer was examined. HEK293 cells were transfected with wt TrpC1 and treated with 150 nM FK506 for times ranging from 15 min to 24 hrs. Cells lysates were prepared in 1% Triton and mixed with GST-Homer1 EVH1 and bound TrpC1 assayed by western blot. Lysates were also assayed to compare expression in each of the samples. […] This effect was detected as early as 30 min after addition of FK506 and persisted for 24 hrs. A peak of increased binding appeared at ˜6hrs. […] It was concluded that FK506 increases the binding of TrpC1 to Homer at a dose that is known to the relevant for FKBP."}, "[3]": {"settings": "1 micromolar, HEK293 cells expressing mGluR5"}}}
{"smiles": "CCC(C)(C)C(=O)C(=O)N1CCC[C@H]1C(=O)OCCCc1cccnc1", "note": "[GPI1046]", "values": [{"measurement": "effect on TrpC1 binding to Homer at 10 nM", "setting": "TrpC1 binding to Homer; 10 nM", "value": "potent enhancement"}, {"measurement": "effect on TrpC1 binding to Homer with higher doses or longer times", "setting": "TrpC1 binding to Homer; doses higher than 10 nM or longer times", "value": "decreases"}, {"measurement": "effect on TrpC1 binding to Homer", "setting": "TrpC1 binding to Homer", "value": "increased"}, {"measurement": "effect on TrpC1 binding to Homer", "setting": "TrpC1 binding to Homer; listed as GPI 1046", "value": "enhanced"}, {"measurement": "concentration at which increased TrpC1 binding to GST-FKBP52 was detected", "setting": "[1]; dimeric TrpC1 species, pretreated lysates", "value": 100, "unit": "nM"}, {"measurement": "effect on binding of TrpC1 to GST-FKBP52", "setting": "[1]; pretreated cell lysates", "value": "increased"}, {"measurement": "mGluR5 binding after 12 or 24 hrs of treatment", "setting": "mGluR5 binding to Homer; 1 micromolar, 12 or 24 hrs", "value": "decreased"}, {"measurement": "effect on expression of mGluR5 in lysates", "setting": "mGluR5 binding to Homer; 1 micromolar, HEK293 cells", "value": "did not significantly alter"}, {"measurement": "treatment time of peak mGluR5 binding", "setting": "mGluR5 binding to Homer; [3]", "value": "≤ 3", "unit": "h"}, {"measurement": "treatment time within which mGluR5 binding increased", "setting": "mGluR5 binding to Homer; [3]", "value": "≤ 30", "unit": "min"}, {"measurement": "effect on mGluR5 binding to GST-Homer", "setting": "mGluR5 binding to Homer", "value": "time-dependent increase"}, {"measurement": "effect on mGluR5 binding to GST-Homer", "setting": "mGluR5 binding to Homer; listed as GPI 1046", "value": "effective in increasing"}]}
{"smiles": "COc1ccc(C(=O)N2CCCC2=O)cc1", "note": "[aniracetam]", "values": [{"measurement": "effect on TrpC1 binding to Homer", "setting": "TrpC1 binding to Homer", "value": "not"}]}
{"smiles": "C=CC[C@@H]1/C=C(\\C)C[C@H](C)C[C@H](OC)[C@H]2O[C@@](O)(C(=O)C(=O)N3CCCC[C@H]3C(=O)O[C@H](/C(C)=C/[C@@H]3CC[C@@H](O)[C@H](OC)C3)[C@H](C)[C@@H](O)CC1=O)[C@H](C)C[C@@H]2OC", "note": "[FK506]", "values": [{"measurement": "earliest time at which increased TrpC1 binding was detected", "setting": "[2]", "value": 30, "unit": "min"}, {"measurement": "time for which increased TrpC1 binding persisted", "setting": "[2]", "value": 24, "unit": "h"}, {"measurement": "time of peak of increased TrpC1 binding", "setting": "[2]", "value": "~6", "unit": "h"}, {"measurement": "time for which mGluR5 binding remained elevated", "setting": "mGluR5 binding to Homer; [3]", "value": 24, "unit": "h"}]}
